Reference: patent publication US10101655B2, “Compound, polymer, photosensitive resin composition, and color filter” (SAMSUNG SDI CO., LTD., priority 2016, dated 2018)

Assay: Evaluation 1: Solubility Measurement (dissolution state in dilution solvents)
Format: physicochemical
Conditions: stirred at 25° C. and 100 rpm for one hour; for Amount of dissolved compound (wt %), CH2Cl2: solvent CH2Cl2 added to 0.5 g of compound; for Amount of dissolved compound (wt %), MeOH: solvent MeOH added to 0.5 g of compound; for Amount of dissolved compound (wt %), Cyclohexanone: solvent cyclohexanone added to 0.5 g of compound
Experimental: Evaluation 1: Solubility Measurement
Dilution solvents (MeOH, CH2Cl2, cyclohexanone) were respectively added to 0.5 g of the compounds represented by Chemical Formula 6-1 to Chemical Formula 17-2 and the compound represented by Chemical Formula X-1, and each solution was stirred with Mixrotar VMR-5 (Iuchi Seieido Co., Ltd.) at 25° C. and 100 rpm for one hour.

Row | Amount of dissolved compound (wt %), CH2Cl2 [% wt %] | Amount of dissolved compound (wt %), MeOH [% wt %] | Amount of dissolved compound (wt %), Cyclohexanone [% wt %] | Compound
1 | >10 | >10 | >3 | CCN(CCOC(=O)NC1CCCCC1)c1ccc2c(-c3ccccc3S(=O)(=O)[N-]S(=O)(=O)C(F)(F)F)c3cc/c(=[N+](/CC)CCOC(=O)NC4CCCCC4)cc-3oc2c1 [Chemical Formula 17-2]
2 | >10 | >10 | >5 | C=C(C)C(=O)OCCNC(=O)OCCN(CC)c1ccc2c(-c3ccccc3S(=O)(=O)[O-])c3cc/c(=[N+](\CCOC(=O)NCCOC(=O)C(=C)C)c4ccccc4)cc-3oc2c1 [Chemical Formula 12-1]
3 | >10 | >10 | >3 | CCN(CCOC(=O)Nc1ccccc1)c1ccc2c(-c3ccccc3S(=O)(=O)[N-]S(=O)(=O)C(F)(F)F)c3cc/c(=[N+](/CC)CCOC(=O)Nc4ccccc4)cc-3oc2c1 [Chemical Formula 13-2]
4 | >10 | >10 | >5 | C=C(C)C(=O)OCCNC(=O)OCCN(CC)c1ccc2c(-c3ccccc3S(=O)(=O)[N-]S(=O)(=O)C(F)(F)F)c3cc/c(=[N+](\CCOC(=O)NCCOC(=O)C(=C)C)c4ccccc4)cc-3oc2c1 [Chemical Formula 12-2]
5 | >10 | >10 | >5 | C=C(C)c1cccc(C(C)(C)NC(=O)OCCN(CC)c2ccc3c(-c4ccccc4S(=O)(=O)[O-])c4cc/c(=[N+](/CC)CCOC(=O)NC(C)(C)c5cccc(C(=C)C)c5)cc-4oc3c2)c1 [Chemical Formula 15-1]
6 | >10 | >10 | >5 | C=CC(=O)OCCNC(=O)OCCN(CC)c1ccc2c(-c3ccccc3S(=O)(=O)[O-])c3cc/c(=[N+](/CC)CCOC(=O)NCCOC(=O)C=C)cc-3oc2c1 [Chemical Formula 14-1]
7 | >10 | >10 | >1 | CCN(CCOC(=O)NC1CCCCC1)c1ccc2c(-c3ccccc3S(=O)(=O)[O-])c3ccc(=[N+](CC)CC)cc-3oc2c1 [Chemical Formula 16-1]
8 | >10 | >10 | >5 | C=CC(=O)OCCNC(=O)OCCN(CC)c1ccc2c(-c3ccccc3S(=O)(=O)[N-]S(=O)(=O)C(F)(F)F)c3cc/c(=[N+](/CC)CCOC(=O)NCCOC(=O)C=C)cc-3oc2c1 [Chemical Formula 14-2]
9 | <1 | >10 | <1 | CCN(CC)c1ccc2c(-c3ccccc3S(=O)(=O)O)c3ccc(=[N+](CC)CC)cc-3oc2c1 [Chemical Formula X-1, reference compound]
10 | >10 | >10 | >5 | C=C(C)c1cccc(C(C)(C)NC(=O)OCCN(CC)c2ccc3c(-c4ccccc4S(=O)(=O)[N-]S(=O)(=O)C(F)(F)F)c4cc/c(=[N+](/CC)CCOC(=O)NC(C)(C)c5cccc(C(=C)C)c5)cc-4oc3c2)c1 [Chemical Formula 15-2]
11 | >10 | >10 | >1 | CCN(CCOC(=O)NC1CCCCC1)c1ccc2c(-c3ccccc3S(=O)(=O)[N-]S(=O)(=O)C(F)(F)F)c3ccc(=[N+](CC)CC)cc-3oc2c1 [Chemical Formula 16-2]
12 | >10 | >10 | >3 | CCN(CCOC(=O)NC1CCCCC1)c1ccc2c(-c3ccccc3S(=O)(=O)[O-])c3cc/c(=[N+](/CC)CCOC(=O)NC4CCCCC4)cc-3oc2c1 [Chemical Formula 17-1]
13 | >10 | >10 | >3 | CCN(CCOC(=O)Nc1ccccc1)c1ccc2c(-c3ccccc3S(=O)(=O)[O-])c3cc/c(=[N+](/CC)CCOC(=O)Nc4ccccc4)cc-3oc2c1 [Chemical Formula 13-1]

The next lines start with the compound.

Row | Compound | Amount of dissolved compound (wt %), CH2Cl2 [% wt %] | Amount of dissolved compound (wt %), MeOH [% wt %] | Amount of dissolved compound (wt %), Cyclohexanone [% wt %]
14 | C=C(C)C(=O)OCCNC(=O)OCCN(CCCC)c1ccc2c(-c3ccccc3S(=O)(=O)[O-])c3cc/c(=[N+](/CCCC)CCOC(=O)NCCOC(=O)C(=C)C)cc-3oc2c1 [Chemical Formula 11-1] | >10 | >10 | >5
15 | C=C(C)C(=O)OCCNC(=O)OCCN(CCCC)c1ccc2c(-c3ccccc3S(=O)(=O)[N-]S(=O)(=O)C(F)(F)F)c3cc/c(=[N+](/CCCC)CCOC(=O)NCCOC(=O)C(=C)C)cc-3oc2c1 [Chemical Formula 11-2] | >10 | >10 | >5
16 | C=C(C)C(=O)OCCNC(=O)OCCN(CC)c1ccc2c(-c3ccccc3S(=O)(=O)[N-]S(=O)(=O)C(F)(F)F)c3cc/c(=[N+](\CC)c4ccccc4)cc-3oc2c1 [Chemical Formula 8-2] | >10 | >10 | >3
17 | C=C(C)C(=O)OCCNC(=O)OCCN(CC)c1ccc2c(-c3ccccc3S(=O)(=O)[N-]S(=O)(=O)C(F)(F)F)c3cc/c(=[N+](/CC)CCOC(=O)NCCOC(=O)C(=C)C)cc-3oc2c1 [Chemical Formula 10-2] | >10 | >10 | >5
18 | C=C(C)C(=O)OCCNC(=O)OCCN(CCCC)c1ccc2c(-c3ccccc3S(=O)(=O)[N-]S(=O)(=O)C(F)(F)F)c3cc/c(=[N+](\CC)CCCC)cc-3oc2c1 [Chemical Formula 7-2] | >10 | >10 | >3
19 | C=C(C)C(=O)OCCNC(=O)OCCN(CC)c1ccc2c(-c3ccccc3S(=O)(=O)[O-])c3ccc(=[N+](CC)CC)cc-3oc2c1 [Chemical Formula 6-1] | >10 | >10 | >3
20 | C=C(C)C(=O)OCCNC(=O)OCCN(CC)c1ccc2c(-c3ccccc3S(=O)(=O)[O-])c3cc/c(=[N+](\CC)c4ccccc4)cc-3oc2c1 [Chemical Formula 8-1] | >10 | >10 | >3
21 | C=C(C)C(=O)OCCNC(=O)OCCN(CC)c1ccc2c(-c3ccccc3S(=O)(=O)[N-]S(=O)(=O)C(F)(F)F)c3ccc(=[N+](CC)CC)cc-3oc2c1 [Chemical Formula 6-2] | >10 | >10 | >3
22 | CCN(CCOC(=O)Nc1ccccc1)c1ccc2c(-c3ccccc3S(=O)(=O)[N-]S(=O)(=O)C(F)(F)F)c3ccc(=[N+](CC)CC)cc-3oc2c1 [Chemical Formula 9-2] | >10 | >10 | >1
23 | CCN(CCOC(=O)Nc1ccccc1)c1ccc2c(-c3ccccc3S(=O)(=O)[O-])c3ccc(=[N+](CC)CC)cc-3oc2c1 [Chemical Formula 9-1] | >10 | >10 | >1
24 | C=C(C)C(=O)OCCNC(=O)OCCN(CCCC)c1ccc2c(-c3ccccc3S(=O)(=O)[O-])c3cc/c(=[N+](\CC)CCCC)cc-3oc2c1 [Chemical Formula 7-1] | >10 | >10 | >3
25 | C=C(C)C(=O)OCCNC(=O)OCCN(CC)c1ccc2c(-c3ccccc3S(=O)(=O)[O-])c3cc/c(=[N+](/CC)CCOC(=O)NCCOC(=O)C(=C)C)cc-3oc2c1 [Chemical Formula 10-1] | >10 | >10 | >5
